Measured values: publication PMC3569060 (Molecular cancer therapeutics, 2012)

Key:
hRR (hRR1 + hRR2) = target: T1, hRR (hRR1 + hRR2) (Homo sapiens, UniProt P23921); assay type: biochemical
T1 sequence (P23921 1-792): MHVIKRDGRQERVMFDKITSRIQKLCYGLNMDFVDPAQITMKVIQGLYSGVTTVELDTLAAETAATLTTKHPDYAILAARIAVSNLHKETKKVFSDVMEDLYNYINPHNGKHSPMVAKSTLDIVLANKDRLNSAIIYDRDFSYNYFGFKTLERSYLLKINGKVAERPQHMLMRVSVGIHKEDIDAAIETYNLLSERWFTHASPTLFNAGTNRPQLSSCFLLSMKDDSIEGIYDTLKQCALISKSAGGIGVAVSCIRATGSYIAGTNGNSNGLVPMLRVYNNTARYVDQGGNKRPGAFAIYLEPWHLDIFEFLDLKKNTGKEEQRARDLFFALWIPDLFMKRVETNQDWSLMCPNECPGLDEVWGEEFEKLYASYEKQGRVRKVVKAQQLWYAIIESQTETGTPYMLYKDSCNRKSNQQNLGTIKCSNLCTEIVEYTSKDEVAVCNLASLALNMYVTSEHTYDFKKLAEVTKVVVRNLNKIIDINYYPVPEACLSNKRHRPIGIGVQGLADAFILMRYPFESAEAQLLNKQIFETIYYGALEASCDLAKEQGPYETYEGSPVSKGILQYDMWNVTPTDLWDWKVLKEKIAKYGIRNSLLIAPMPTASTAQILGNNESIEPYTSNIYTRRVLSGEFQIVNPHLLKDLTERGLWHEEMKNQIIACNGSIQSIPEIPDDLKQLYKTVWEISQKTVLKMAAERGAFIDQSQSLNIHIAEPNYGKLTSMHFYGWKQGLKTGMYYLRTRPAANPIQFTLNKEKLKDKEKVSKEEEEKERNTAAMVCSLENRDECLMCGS
T1 sequence (P31350 1-389 partner): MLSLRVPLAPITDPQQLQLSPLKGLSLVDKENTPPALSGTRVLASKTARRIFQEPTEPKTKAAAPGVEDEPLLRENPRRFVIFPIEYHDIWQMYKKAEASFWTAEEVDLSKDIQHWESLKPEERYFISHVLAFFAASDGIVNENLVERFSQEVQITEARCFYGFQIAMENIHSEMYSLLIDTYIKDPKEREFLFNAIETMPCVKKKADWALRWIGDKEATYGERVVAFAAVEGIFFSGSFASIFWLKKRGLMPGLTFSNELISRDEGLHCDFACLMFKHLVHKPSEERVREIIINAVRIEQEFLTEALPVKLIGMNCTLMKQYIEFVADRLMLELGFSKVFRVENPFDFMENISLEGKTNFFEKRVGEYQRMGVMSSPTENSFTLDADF

ScRR1 = target: T2, ScRR1 (Saccharomyces cerevisiae, UniProt P21524); experiment: X-ray crystal structure, […] Å, crystal soaking; assay type: binding; conditions: allosteric S-site; Mg2+ bound at alpha- and gamma-phosphates
T2 sequence (P21524 1-888): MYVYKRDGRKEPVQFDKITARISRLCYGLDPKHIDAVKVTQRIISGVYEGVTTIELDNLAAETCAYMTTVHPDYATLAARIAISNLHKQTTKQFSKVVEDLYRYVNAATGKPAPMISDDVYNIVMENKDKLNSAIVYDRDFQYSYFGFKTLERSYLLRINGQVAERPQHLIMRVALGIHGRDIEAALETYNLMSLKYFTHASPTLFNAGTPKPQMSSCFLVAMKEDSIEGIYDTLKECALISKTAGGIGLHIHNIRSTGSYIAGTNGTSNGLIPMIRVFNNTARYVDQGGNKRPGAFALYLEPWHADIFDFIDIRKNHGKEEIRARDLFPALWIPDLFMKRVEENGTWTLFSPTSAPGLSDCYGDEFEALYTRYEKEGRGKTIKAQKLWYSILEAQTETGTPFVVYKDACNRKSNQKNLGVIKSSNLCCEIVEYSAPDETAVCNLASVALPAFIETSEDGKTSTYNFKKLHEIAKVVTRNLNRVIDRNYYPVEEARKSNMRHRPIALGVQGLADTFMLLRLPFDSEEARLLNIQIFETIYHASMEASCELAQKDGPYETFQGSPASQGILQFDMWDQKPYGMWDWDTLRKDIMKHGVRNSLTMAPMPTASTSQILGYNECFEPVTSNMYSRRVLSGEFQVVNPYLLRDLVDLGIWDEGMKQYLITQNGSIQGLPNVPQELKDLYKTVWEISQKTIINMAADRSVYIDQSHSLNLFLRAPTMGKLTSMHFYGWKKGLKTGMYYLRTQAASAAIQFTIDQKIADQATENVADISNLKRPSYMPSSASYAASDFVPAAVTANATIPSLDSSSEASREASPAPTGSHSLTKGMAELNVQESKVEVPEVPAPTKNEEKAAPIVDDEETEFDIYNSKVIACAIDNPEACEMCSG

IC50 (hRR (hRR1 + hRR2)): 170 ± 5 µM
Compound: O=[N+]([O-])c1ccc2c(ccn2[C@H]2C[C@H](O)[C@@H](COP(=O)(O)OP(=O)(O)OP(=O)(O)O)O2)c1 [5-NITP]
X-ray crystal structure, 2.3 Å, crystal soaking (ScRR1): clearly shows electron density for 5-NITP bound at the S-site
